Results from patent US9545120B2, “Method of lowering glycemic index of foods” (BASF SE, priority 2002, dated 2017).
Read-outs that look alike come from different tables or passages of the source.

Tests used:
[1] = molecular target: T1, Alpha-amylase from porcine pancreas (Sus scrofa, UniProt P00690); assay: Alpha-amylase assay; format: biochemical; details: for remaining activity at 11.7 µg/mL / remaining activity at 23.4 µg/mL / remaining activity at 46.9 µg/mL / remaining activity at 93.8 µg/mL / remaining activity at 187.5 µg/mL / remaining activity at 375 µg/mL / remaining activity at 750 µg/mL: read-out: alpha-amylase % control; for inhibition at 11.7 µg/mL / inhibition at 23.4 µg/mL / inhibition at 46.9 µg/mL / inhibition at 93.8 µg/mL / inhibition at 187.5 µg/mL / inhibition at 375 µg/mL / inhibition at 750 µg/mL: read-out: alpha-amylase % inhibition; for inhibition at 1600 µM: read-out: % inhibition of alpha-amylase at flavonoid concentration 1.6 mM (454 μg/mL)
T1 construct: purchased Sigma; host or cells: porcine pancreas
T1 sequence (P00690 16-511): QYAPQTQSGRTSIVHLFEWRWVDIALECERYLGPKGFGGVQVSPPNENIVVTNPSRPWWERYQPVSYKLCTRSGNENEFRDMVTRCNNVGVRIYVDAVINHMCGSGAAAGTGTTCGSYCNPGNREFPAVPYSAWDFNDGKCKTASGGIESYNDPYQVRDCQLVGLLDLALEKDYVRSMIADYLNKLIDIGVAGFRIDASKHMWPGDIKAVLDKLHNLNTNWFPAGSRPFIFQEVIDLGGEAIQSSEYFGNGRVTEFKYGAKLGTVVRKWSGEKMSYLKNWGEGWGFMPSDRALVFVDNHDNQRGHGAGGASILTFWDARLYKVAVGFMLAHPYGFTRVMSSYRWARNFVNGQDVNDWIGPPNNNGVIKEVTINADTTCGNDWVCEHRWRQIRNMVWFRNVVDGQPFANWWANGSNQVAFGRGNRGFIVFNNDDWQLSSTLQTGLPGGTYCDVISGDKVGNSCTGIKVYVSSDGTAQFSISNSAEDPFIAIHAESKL
Method: Alpha-amylase from porcine pancreas, alpha-glucosidase, glucoamylase and substrate (p-nitrophenyl-alpha-maltopentaoside) were purchased from Sigma. In the reaction, alpha-amylase (endo-type enzyme) hydrolysed the substrate into shorter chain glucosides and the auxiliary enzymes (exo-type enzymes) released the chromophore (p-nitrophenol) from the amylase-hydrolyzed malto-polysaccharides. For the assay, alpha-amylase (7.5 U/ml) was added to a substrate solution containing 1 mM p-nitrophenyl-alpha-maltopentaoside, 15 U/ml of alpha-glucosidase and 25 U/ml of glucoamylase in 50 mM HEPES buffer (pH 7.3) containing 3 mM CaCl2 and 40 mM NaCl. The reaction was carried out for 15 min at 37° C. in the presence vs. absence of flavonoids at concentrations ranged from 11.7 to 750 μg/ml. At the end of the incubation, 0.2 M borate, pH 9.8 was added to inactivate the enzymes and liberated p-nitrophenol was measured spectrophotometrically at 405 nm. The relative activity of alpha-amylase was calculated by subtracting reaction blanks containing the substrate, the two axillary enzymes and flavonoids at the same concentrations. The inhibitory activity was expressed as 100 minus relative absorbance difference between tested samples and controls.

[2] = molecular target: T2, Alpha-glucosidase Type 1 from bakers yeast (Saccharomyces cerevisiae, UniProt P53341); assay: Alpha-glucosidase assay; format: biochemical; details: for remaining activity at 15.6 µg/mL / remaining activity at 7.8 µg/mL / remaining activity at 31.3 µg/mL / remaining activity at 62.5 µg/mL / remaining activity at 125 µg/mL / remaining activity at 250 µg/mL / remaining activity at 500 µg/mL: read-out: alpha-glucosidase % control; for inhibition at 15.6 µg/mL / inhibition at 7.8 µg/mL / inhibition at 31.3 µg/mL / inhibition at 62.5 µg/mL / inhibition at 125 µg/mL / inhibition at 250 µg/mL / inhibition at 500 µg/mL: read-out: alpha-glucosidase % inhibition; for inhibition at 1600 µM: read-out: % inhibition of alpha-glucosidase at flavonoid concentration 1.6 mM (454 μg/mL)
T2 construct: purchased Sigma
T2 sequence (P53341 whole entry): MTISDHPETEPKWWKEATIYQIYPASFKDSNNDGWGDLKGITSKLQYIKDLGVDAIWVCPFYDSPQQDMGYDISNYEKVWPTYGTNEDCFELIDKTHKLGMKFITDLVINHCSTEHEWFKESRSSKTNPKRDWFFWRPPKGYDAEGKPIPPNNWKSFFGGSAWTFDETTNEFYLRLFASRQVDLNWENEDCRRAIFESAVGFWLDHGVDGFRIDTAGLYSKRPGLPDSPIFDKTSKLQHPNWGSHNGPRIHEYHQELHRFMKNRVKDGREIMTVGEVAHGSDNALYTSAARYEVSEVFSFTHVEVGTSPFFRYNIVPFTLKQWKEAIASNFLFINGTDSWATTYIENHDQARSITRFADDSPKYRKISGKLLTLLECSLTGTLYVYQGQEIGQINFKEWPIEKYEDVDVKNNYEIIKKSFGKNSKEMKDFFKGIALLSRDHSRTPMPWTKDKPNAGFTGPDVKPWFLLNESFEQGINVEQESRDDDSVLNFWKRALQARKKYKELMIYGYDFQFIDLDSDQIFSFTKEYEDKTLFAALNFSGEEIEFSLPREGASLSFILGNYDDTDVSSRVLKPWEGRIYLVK
Method: Alpha-glucosidase Type 1 from bakers yeast, substrate (p-nitrophenyl-alpha-D-glucopyranoside) and a control inhibitor, castanospermine were purchased from Sigma. For the assay, enzyme dissolved in 50 mM acetate buffer, pH 4.5 was incubated for 30 min, at 37° C. in the presence of substrate and in the presence vs. absence of inhibitors (flavonoids or castanospermine at various concentrations). The reaction was carried out in 50 mM acetate buffer, pH 4.5. Final concentration of alpha glucosidase was 0.2 U/ml; final concentration of the substrate was 2 mM. Flavonoids concentrations ranged from 7.8 to 500 μg/ml and castanospermine was used at final concentration 1 μg/ml. The reaction was stopped by addition of 0.2 M Na2CO3 and absorbance was measured at 405 nm. Background absorbance (without enzyme) was subtracted for every flavonoid concentration used. The inhibitory activity was expressed as 100 minus relative absorbance difference between tested samples and controls.

`O=c1cc(-c2ccc(O)cc2)oc2cc(O)cc(O)c12` [Apigenin, apigenin] showed a remaining activity at 11.7 µg/mL ([1]; flavonoid conc. 11.7 μg/ml) of 81%, an inhibition at 11.7 µg/mL ([1]; flavonoid conc. 11.7 μg/ml) of 19% and a remaining activity at 23.4 µg/mL ([1]; flavonoid conc. 23.4 μg/ml) of 0%. For the same compound, the inhibition at 23.4 µg/mL ([1]; flavonoid conc. 23.4 μg/ml) was 100%, the remaining activity at 46.9 µg/mL ([1]; flavonoid conc. 46.9 μg/ml) was 0% and the inhibition at 46.9 µg/mL ([1]; flavonoid conc. 46.9 μg/ml) was 100%. For the same compound, the remaining activity at 93.8 µg/mL ([1]; flavonoid conc. 93.8 μg/ml) was 0%, the inhibition at 93.8 µg/mL ([1]; flavonoid conc. 93.8 μg/ml) was 100% and the remaining activity at 187.5 µg/mL ([1]; flavonoid conc. 187.5 μg/ml) was 0%. It also gave an inhibition at 187.5 µg/mL ([1]; flavonoid conc. 187.5 μg/ml) of 100%, a remaining activity at 375 µg/mL ([1]; flavonoid conc. 375.0 μg/ml) of 0% and an inhibition at 375 µg/mL ([1]; flavonoid conc. 375.0 μg/ml) of 100%. For the same compound, the remaining activity at 750 µg/mL ([1]; flavonoid conc. 750.0 μg/ml) was 0%, the inhibition at 750 µg/mL ([1]; flavonoid conc. 750.0 μg/ml) was 100% and the inhibition at 1600 µM [1] was 100%. It also gave an IC50 [2] of 220 µM, a remaining activity at 15.6 µg/mL ([2]; flavonoid conc. 15.6 μg/mL) of 74.3% and an inhibition at 15.6 µg/mL ([2]; flavonoid conc. 15.6 μg/mL) of 25.7%. It also gave an inhibition at 1600 µM [2] of 100%, a remaining activity at 7.8 µg/mL [2] of 73.5% and a remaining activity at 31.3 µg/mL [2] of 68.4%. The remaining activity at 62.5 µg/mL [2] was 50.4%, the remaining activity at 125 µg/mL [2] was 29.5% and the remaining activity at 250 µg/mL [2] was 0%. The remaining activity at 500 µg/mL [2] was 0%, the inhibition at 7.8 µg/mL [2] was 26.5% and the inhibition at 31.3 µg/mL [2] was 31.6%. It also gave an inhibition at 62.5 µg/mL [2] of 49.6%, an inhibition at 125 µg/mL [2] of 70.5% and an inhibition at 250 µg/mL [2] of 100%. For the same compound, the inhibition at 500 µg/mL [2] was 100%.

For `O=c1cc(-c2ccc(O)c(O)c2)oc2cc(O)cc(O)c12` [Luteolin, luteolin], the remaining activity at 11.7 µg/mL ([1]; flavonoid conc. 11.7 μg/ml) was 0%, the inhibition at 11.7 µg/mL ([1]; flavonoid conc. 11.7 μg/ml) was 100% and the remaining activity at 23.4 µg/mL ([1]; flavonoid conc. 23.4 μg/ml) was 0%. It also gave an inhibition at 23.4 µg/mL ([1]; flavonoid conc. 23.4 μg/ml) of 100%, a remaining activity at 46.9 µg/mL ([1]; flavonoid conc. 46.9 μg/ml) of 0% and an inhibition at 46.9 µg/mL ([1]; flavonoid conc. 46.9 μg/ml) of 100%. For the same compound, the remaining activity at 93.8 µg/mL ([1]; flavonoid conc. 93.8 μg/ml) was 0%, the inhibition at 93.8 µg/mL ([1]; flavonoid conc. 93.8 μg/ml) was 100% and the remaining activity at 187.5 µg/mL ([1]; flavonoid conc. 187.5 μg/ml) was 0%. The inhibition at 187.5 µg/mL ([1]; flavonoid conc. 187.5 μg/ml) was 100%, the remaining activity at 375 µg/mL ([1]; flavonoid conc. 375.0 μg/ml) was 0% and the inhibition at 375 µg/mL ([1]; flavonoid conc. 375.0 μg/ml) was 100%. The remaining activity at 750 µg/mL ([1]; flavonoid conc. 750.0 μg/ml) was 0%, the inhibition at 750 µg/mL ([1]; flavonoid conc. 750.0 μg/ml) was 100% and the “inhibition of alpha-amylase at the lowest concentration tested” value ([1]; lowest concentration tested (11.7 μg/ml)) was “inhibiting the enzyme completely”. The inhibition at 1600 µM [1] was 100%, the IC50 ([1]; read-out: IC50 concentration, alpha-amylase (converted)) was 20.3 µM and the remaining activity at 15.6 µg/mL ([2]; flavonoid conc. 15.6 μg/mL) was 60.2%. The inhibition at 15.6 µg/mL ([2]; flavonoid conc. 15.6 μg/mL) was 39.8%, the inhibition at 1600 µM [2] was 96% and the IC50 ([2]; read-out: IC50 concentration, alpha-glucosidase (converted)) was 180 µM. For the same compound, the remaining activity at 7.8 µg/mL [2] was 81.4%, the remaining activity at 31.3 µg/mL [2] was 65.8% and the remaining activity at 62.5 µg/mL [2] was 45.7%. The remaining activity at 125 µg/mL [2] was 17.9%, the remaining activity at 250 µg/mL [2] was 19.1% and the remaining activity at 500 µg/mL [2] was 0%. It also gave an inhibition at 7.8 µg/mL [2] of 18.6%, an inhibition at 31.3 µg/mL [2] of 34.2% and an inhibition at 62.5 µg/mL [2] of 54.3%. The inhibition at 125 µg/mL [2] was 82.1%, the inhibition at 250 µg/mL [2] was 80.9% and the inhibition at 500 µg/mL [2] was 100%.

`COc1cc(-c2cc(=O)c3c(O)cc(O)cc3o2)cc(OC)c1O` [Tricin, tricin] gave an IC50 [1] of 30 µM, an inhibition at 1600 µM [1] of 100% and a remaining activity at 11.7 µg/mL [1] of 40.9%. It also gave a remaining activity at 23.4 µg/mL [1] of 18.2%, a remaining activity at 46.9 µg/mL [1] of 0% and a remaining activity at 93.8 µg/mL [1] of 0%. The remaining activity at 187.5 µg/mL [1] was 0%, the remaining activity at 375 µg/mL [1] was 0% and the remaining activity at 750 µg/mL [1] was 0%. For the same compound, the inhibition at 11.7 µg/mL [1] was 59.1%, the inhibition at 23.4 µg/mL [1] was 81.8% and the inhibition at 46.9 µg/mL [1] was 100%. The inhibition at 93.8 µg/mL [1] was 100%, the inhibition at 187.5 µg/mL [1] was 100% and the inhibition at 375 µg/mL [1] was 100%. For the same compound, the inhibition at 750 µg/mL [1] was 100%, the IC50 [2] was 36.3 µM and the inhibition at 1600 µM [2] was 100%. For the same compound, the remaining activity at 7.8 µg/mL [2] was 97.7%, the remaining activity at 15.6 µg/mL [2] was 26.4% and the remaining activity at 31.3 µg/mL [2] was 15.6%. For the same compound, the remaining activity at 62.5 µg/mL [2] was 6.4%, the remaining activity at 125 µg/mL [2] was 0% and the remaining activity at 250 µg/mL [2] was 0%. The remaining activity at 500 µg/mL [2] was 0%, the inhibition at 7.8 µg/mL [2] was 0.3% and the inhibition at 15.6 µg/mL [2] was 73.6%. For the same compound, the inhibition at 31.3 µg/mL [2] was 84.4%, the inhibition at 62.5 µg/mL [2] was 93.6% and the inhibition at 125 µg/mL [2] was 100%. It also gave an inhibition at 250 µg/mL [2] of 100% and an inhibition at 500 µg/mL [2] of 100%.

With `O[C@H]1[C@H](O)[C@@H](O)CN2CC[C@H](O)[C@H]12` [castanospermine, reference compound] the “activity of alpha-glucosidase reduced by” value ([2]; 1 μg/ml, control inhibitor) was 32%.
